Reference: patent US9549921B2, “Heterocyclic compounds and methods of use thereof for the treatment of hepatitis C” (priority 2014, dated 2017)
Read-outs that look alike come from different tables or passages of the source.

What was measured:
HCV replicon genotype 1a = test: HCV replicon assay, genotype 1a (cell ELISA for NS3/4A); assay type: cell-based, hepatitis C virus
Protocol: (§1) The HCV NS5B inhibitory activity of the present compounds may be tested using assays known in the art. The HCV NS5B polymerase inhibitors described herein have activities in a genotype 1b replicon assay as described in the Examples. The assay is performed by incubating a replicon harboring cell-line in the presence of inhibitor for a set period of time and measuring the effect of the inhibitor on HCV replicon replication either directly by quantifying replicon RNA level, or indirectly by measuring enzymatic activity of a co-encoded reporter enzyme such as luciferase or β-lactamase. By performing a series of such measurements at different inhibitor concentrations, the effective inhibitory concentration of the inhibitor (EC50 or EC90) is determined. See Jan M. Vrolijk et al., A replicons-based bioassay for the measurement of interferons in patients with chronic hepatitis C, 110 J. VIROLOGICAL METHODS 201 (2003). Such assays may also be run in an automated format for high through-put screening. See Paul Zuck et al., A cell-based β-lactamase reporter gene assay for the identification of inhibitors of hepatitis C virus replication, 334 ANALYTICAL BIOCHEMISTRY 344 (2004).
(§2) Measurement of inhibition by compounds was performed using the HCV replicon system. Several different replicons encoding different HCV genotypes or mutations were used. In addition, potency measurements were made using different formats of the replicon assay, including different ways of measurements and different plating formats. See Jan M. Vrolijk et al., A replicons-based bioassay for the measurement of interferons in patients with chronic hepatitis C, 110 J. VIROLOGICAL METHODS 201 (2003); Steven S. Carroll et al., Inhibition of Hepatitis C Virus RNA Replication by 2′-Modified Nucleoside Analogs, 278(14) J. BIOLOGICAL CHEMISTRY 11979 (2003). However, the underlying principles are common to all of these determinations, and are outlined below.
(§3) Stable neomycin phosphotransferase encoding replicons-harboring cell lines were used, so all cell lines were maintained under G418 selection prior to the assay. Potency was deteremined using a cell ELISA assay with an antibody to the replicons encoded NS3/4a protease. See Caterina Trozzi et al., In Vitro Selection and Characterization of Hepatitis C Virus Serine Protease Variants Resistant to an Active-Site Peptide Inhibitor, 77(6) J. Virol. 3669 (2003). To initiate an assay, replicon cells were plated in the presence of a dilution series of test compound in the absence of G418. Typically, the assays were performed in a 96-well plate formate for manual operation, or a 384-well plate format for automated assay. Replicon cells and compound were incubated for 96 hours. At the end of the assay, cells were washed free of media and compound, and the cells were then lysed. RNA was quantified indirectly through detection of replicon-encoded NS3/4A protein levels, through an ELISA-based assay with an antibody specific for NS3/4A. IC50 determinations were calculated as a percentage of a DMSO control by fitting the data to a four-parameter fit function and the data obtained is provided in the table below.
(§4) Data for selected compounds of the present invention was obtained for genotypes 1a and 1b using this method and is provided in the table below: […]

HCV replicon genotype 1b = test: HCV replicon assay, genotype 1b (cell ELISA for NS3/4A); assay type: cell-based, hepatitis C virus
Protocol: as §1, §2, §3, §4

[1] = read-out: 1a IC50, HCV genotype 1a replicon cells, 96 hours incubation, NS3/4A ELISA readout, % of DMSO control
[2] = read-out: 1b IC50, HCV genotype 1b replicon cells, 96 hours incubation, NS3/4A ELISA readout, % of DMSO control
[3] = Hepatitis C virus, 96 h, read-out: 1a IC50 (nM), HCV genotype 1a replicon cells, 96 hours incubation, NS3/4A ELISA readout, % of DMSO control
[4] = Hepatitis C virus, 96 h, read-out: 1b IC50 (nM), HCV genotype 1b replicon cells, 96 hours incubation, NS3/4A ELISA readout, % of DMSO control

| SMILES | IC50 (HCV replicon genotype 1a; [1]) [nM] | IC50 (HCV replicon genotype 1b; [2]) [nM] | IC50 (HCV replicon genotype 1a; [3]) [nM] | IC50 (HCV replicon genotype 1b; [4]) [nM] |
| --- | --- | --- | --- | --- |
| CNC(=O)c1c(-c2ccc(F)cc2)oc2cc(N(C)S(C)(=O)=O)c([C@@H]3CCCN(C(=O)c4cc5c(F)cccc5n4C)C3)cc12 (single isomer, unassigned) [Example 26, 5-(1-(4-fluoro-1-methyl-1H-indole-2-carbonyl)piperidin-3-yl)-2-(4-fluorophenyl)-N-methyl-6-(N-methylmethylsulfonamido)benzofuran-3-carboxamide] | 15.8 | 12.6 | – | – |
| CNC(=O)c1c(-c2ccc(F)cc2)oc2cc(N(C)S(C)(=O)=O)c(C3CCCN(C(=O)[C@H](NC(=O)OC(C)(C)C)c4ccccc4F)C3)cc12 (single isomer, unassigned) [Example 27] | – | – | 44.4 | 35.2 |
| CNC(=O)c1c(-c2ccc(F)cc2)oc2cc(N(C)S(C)(=O)=O)c(C3CCCN(C(=O)[C@H](NC(=O)OC(C)(C)C)c4ccccc4F)C3)cc12 (single isomer, unassigned) [Example 28] | 23.9 | 21.4 | – | – |
| CNC(=O)c1c(-c2ccc(F)cc2)oc2cc(N(C)S(C)(=O)=O)c([C@@H]3CCCN(C(=O)[C@H](N)c4ccccc4F)C3)cc12 (single isomer, unassigned) [Example 29] | – | – | 83.1 | 148 |
| CNC(=O)c1c(-c2ccc(F)cc2)oc2cc(N(C)S(C)(=O)=O)c([C@@H]3CCCN(C(=O)[C@H](N)c4ccccc4F)C3)cc12 (single isomer, unassigned) [Example 30] | 122 | 215 | – | – |
| CNC(=O)c1c(-c2ccc(F)cc2)oc2cc(N(C)S(C)(=O)=O)c([C@@H]3CCCN(C(=O)c4cc5cccc(OC)c5[nH]4)C3)cc12 (single isomer, unassigned) [Example 41, 2-(4-fluorophenyl)-5-(1-(7-methoxy-1H-indole-2-carbonyl)piperidin-3-yl)-N-methyl-6-(N-methylmethylsulfonamido)benzofuran-3-carboxamide] | 30.7 | – | – | 13.5 |
| CNC(=O)c1c(-c2ccc(F)cc2)oc2cc(N(C)S(C)(=O)=O)c([C@@H]3CCCN(C(=O)c4cc5cccc(OC)c5[nH]4)C3)cc12 (single isomer, unassigned) [Example 42, 2-(4-fluorophenyl)-5-(1-(7-methoxy-1H-indole-2-carbonyl)piperidin-3-yl)-N-methyl-6-(N-methylmethylsulfonamido)benzofuran-3-carboxamide] | 106 | 23.9 | – | – |
| CNC(=O)c1c(-c2ccc(F)cc2)oc2cc(N(C)S(C)(=O)=O)c([C@@H]3CCCN(c4nc5ccccc5n4C)C3)cc12 (single isomer, unassigned) [Example 43, 2-(4-fluorophenyl)-N-methyl-5-(1-(1-methyl-1H-benzo[d]imidazol-2-yl)piperidin-3-yl)-6-(N-methylmethylsulfonamido)benzofuran-3-carboxamide] | – | – | 41.2 | 93 |
| CNC(=O)c1c(-c2ccc(F)cc2)oc2cc(N(C)S(C)(=O)=O)c([C@@H]3CCCN(c4nc5ccccc5n4C)C3)cc12 (single isomer, unassigned) [Example 44, 2-(4-fluorophenyl)-N-methyl-5-(1-(1-methyl-1H-benzo[d]imidazol-2-yl)piperidin-3-yl)-6-(N-methylmethylsulfonamido)benzofuran-3-carboxamide] | 71 | 82.4 | – | – |
| CNC(=O)c1c(-c2ccc(F)cc2)oc2cc(N(C)S(C)(=O)=O)c([C@@H]3CCCN(c4nc5ccccc5[nH]4)C3)cc12 (single isomer, unassigned) [Example 45, 5-(1-(1H-benzo[d]imidazol-2-yl)piperidin-3-yl)-2-(4-fluorophenyl)-N-methyl-6-(N-methylmethylsulfonamido)benzofuran-3-carboxamide] | 225 | 70.9 | – | – |
| CNC(=O)c1c(-c2ccc(F)cc2)oc2cc(N(C)S(C)(=O)=O)c([C@@H]3CCCN(c4nc5ccccc5[nH]4)C3)cc12 (single isomer, unassigned) [Example 46, 5-(1-(1H-benzo[d]imidazol-2-yl)piperidin-3-yl)-2-(4-fluorophenyl)-N-methyl-6-(N-methylmethylsulfonamido)benzofuran-3-carboxamide] | 11.9 | 9.47 | – | – |
| CNC(=O)c1c(-c2ccc(F)cc2)oc2cc(N(C)S(C)(=O)=O)c([C@@H]3CCCN(c4nc5ccccc5o4)C3)cc12 (single isomer, unassigned) [Example 47, 5-(1-(benzo[d]oxazol-2-yl)piperidin-3-yl)-2-(4-fluorophenyl)-N-methyl-6-(N-methylmethylsulfonamido)benzofuran-3-carboxamide] | 8.37 | 5.37 | – | – |
| CNC(=O)c1c(-c2ccc(F)cc2)oc2cc(N(C)S(C)(=O)=O)c([C@@H]3CCCN(c4nc5ccccc5o4)C3)cc12 (single isomer, unassigned) [Example 48, 5-(1-(benzo[d]oxazol-2-yl)piperidin-3-yl)-2-(4-fluorophenyl)-N-methyl-6-(N-methylmethylsulfonamido)benzofuran-3-carboxamide] | 40.2 | 24.8 | – | – |
| CNC(=O)c1c(-c2ccc(F)cc2)oc2cc(N(C)S(C)(=O)=O)c([C@@H]3CCCN(c4nc5c(F)cccc5o4)C3)cc12 (single isomer, unassigned) [Example 49, 5-(1-(4-fluorobenzo[d]oxazol-2-yl)piperidin-3-yl)-2-(4-fluorophenyl)-N-methyl-6-(N-methylmethylsulfonamido)benzofuran-3-carboxamide] | 5.76 | 7.44 | – | – |
| CNC(=O)c1c(-c2ccc(F)cc2)oc2cc(N(C)S(C)(=O)=O)c([C@@H]3CCCN(c4nc5c(F)cccc5o4)C3)cc12 (single isomer, unassigned) [Example 50, 5-(1-(4-fluorobenzo[d]oxazol-2-yl)piperidin-3-yl)-2-(4-fluorophenyl)-N-methyl-6-(N-methylmethylsulfonamido)benzofuran-3-carboxamide] | 81.7 | 20.1 | – | – |
| CNC(=O)c1c(-c2ccc(F)cc2)oc2cc(N(C)S(C)(=O)=O)c([C@@H]3CCCN(c4nc5cc(F)ccc5o4)C3)cc12 (single isomer, unassigned) [Example 52] | – | – | 32.6 | 42.6 |
| CNC(=O)c1c(-c2ccc(F)cc2)oc2cc(N(C)S(C)(=O)=O)c([C@@H]3CCCN(c4nc5ncccc5o4)C3)cc12 (single isomer, unassigned) [Example 53, 2-(4-fluorophenyl)-N-methyl-6-(N-methylmethylsulfonamido)-5-(1-(oxazolo[4,5-b]pyridin-2-yl)piperidin-3-yl)benzofuran-3-carboxamide] | – | – | 14.6 | 15.7 |
| CNC(=O)c1c(-c2ccc(F)cc2)oc2cc(N(C)S(C)(=O)=O)c([C@@H]3CCCN(c4nc5ncccc5o4)C3)cc12 (single isomer, unassigned) [Example 54, 2-(4-fluorophenyl)-N-methyl-6-(N-methylmethylsulfonamido)-5-(1-(oxazolo[4,5-b]pyridin-2-yl)piperidin-3-yl)benzofuran-3-carboxamide] | 7.38 | 13.9 | – | – |
| CNC(=O)c1c(-c2ccc(F)cc2)oc2cc(N(C)S(C)(=O)=O)c([C@@H]3CCCN(c4nc5c(F)cccc5[nH]4)C3)cc12 (single isomer, unassigned) [Example 55, 5-(1-(4-fluoro-1H-benzo[d]imidazol-2-yl)piperidin-3-yl)-2-(4-fluorophenyl)-N-methyl-6-(N-methylmethylsulfonamido)benzofuran-3-carboxamide] | 5.65 | 3.63 | – | – |
